Experimental data reported in ChEMBL document CHEMBL5291721, “A preclinical secondary pharmacology resource illuminates target-adverse drug reaction associations of marketed drugs” (Nat Commun, 2023).

Key:
[1] = biological target: Voltage-dependent L-type calcium channel subunit alpha-1C (Homo sapiens, UniProt Q13936); format: functional, cell-based
[2] = biological target: Hydroxycarboxylic acid receptor 2 (Homo sapiens, UniProt Q8TDS4)
[3] = biological target: T1, Glucocorticoid receptor (Homo sapiens, UniProt P04150); format: functional
T1 sequence (P04150 whole entry): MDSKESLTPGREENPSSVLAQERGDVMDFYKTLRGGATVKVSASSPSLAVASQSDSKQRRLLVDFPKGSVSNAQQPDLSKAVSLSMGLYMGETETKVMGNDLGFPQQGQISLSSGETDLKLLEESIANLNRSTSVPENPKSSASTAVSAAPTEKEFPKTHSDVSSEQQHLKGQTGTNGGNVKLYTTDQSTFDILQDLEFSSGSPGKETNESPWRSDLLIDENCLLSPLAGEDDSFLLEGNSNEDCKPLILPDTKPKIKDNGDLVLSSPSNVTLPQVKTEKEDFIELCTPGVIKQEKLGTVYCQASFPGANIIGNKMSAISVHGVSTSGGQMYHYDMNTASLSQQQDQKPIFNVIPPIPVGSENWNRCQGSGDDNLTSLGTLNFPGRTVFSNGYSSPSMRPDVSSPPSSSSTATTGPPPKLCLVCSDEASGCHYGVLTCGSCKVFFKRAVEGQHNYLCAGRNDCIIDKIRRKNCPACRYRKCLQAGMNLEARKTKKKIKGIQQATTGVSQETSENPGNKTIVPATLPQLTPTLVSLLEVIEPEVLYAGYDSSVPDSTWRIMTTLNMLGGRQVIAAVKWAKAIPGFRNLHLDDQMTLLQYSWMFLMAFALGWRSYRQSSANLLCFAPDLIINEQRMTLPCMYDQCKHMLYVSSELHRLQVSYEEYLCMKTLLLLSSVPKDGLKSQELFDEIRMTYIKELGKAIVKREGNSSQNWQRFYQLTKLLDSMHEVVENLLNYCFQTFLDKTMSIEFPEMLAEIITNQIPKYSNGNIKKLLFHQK

[4] = biological target: T1, Glucocorticoid receptor; format: functional; remark: listed apart in the source
[5] = biological target: T2, Estrogen receptor (Homo sapiens, UniProt P03372); format: functional
T2 sequence (P03372 whole entry): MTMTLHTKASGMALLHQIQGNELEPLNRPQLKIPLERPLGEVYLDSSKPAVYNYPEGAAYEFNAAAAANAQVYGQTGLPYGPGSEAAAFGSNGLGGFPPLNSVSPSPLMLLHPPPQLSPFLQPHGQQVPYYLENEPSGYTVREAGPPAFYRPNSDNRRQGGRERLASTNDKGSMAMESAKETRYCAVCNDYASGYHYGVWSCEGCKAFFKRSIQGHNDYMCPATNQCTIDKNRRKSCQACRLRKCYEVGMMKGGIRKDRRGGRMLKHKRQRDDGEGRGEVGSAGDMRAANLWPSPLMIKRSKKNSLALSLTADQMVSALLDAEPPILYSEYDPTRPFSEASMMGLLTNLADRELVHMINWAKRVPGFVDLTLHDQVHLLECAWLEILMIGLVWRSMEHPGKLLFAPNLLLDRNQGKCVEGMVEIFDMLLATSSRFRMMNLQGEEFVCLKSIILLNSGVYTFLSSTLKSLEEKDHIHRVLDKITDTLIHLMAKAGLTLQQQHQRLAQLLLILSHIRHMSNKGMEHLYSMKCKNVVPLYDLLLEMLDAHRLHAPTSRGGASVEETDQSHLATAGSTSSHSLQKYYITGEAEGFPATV

[6] = biological target: Cannabinoid receptor 1 (Homo sapiens, UniProt P21554); format: functional
[7] = biological target: Gamma-aminobutyric acid type B receptor subunit 1 (Homo sapiens, UniProt Q9UBS5)
[8] = biological target: 5-hydroxytryptamine receptor 5A (Homo sapiens, UniProt P47898)
[9] = biological target: Synaptic vesicular amine transporter (Rattus norvegicus, UniProt Q01827); format: functional
[10] = biological target: T3, Substance-K receptor (Homo sapiens, UniProt P21452)
T3 sequence (P21452 whole entry): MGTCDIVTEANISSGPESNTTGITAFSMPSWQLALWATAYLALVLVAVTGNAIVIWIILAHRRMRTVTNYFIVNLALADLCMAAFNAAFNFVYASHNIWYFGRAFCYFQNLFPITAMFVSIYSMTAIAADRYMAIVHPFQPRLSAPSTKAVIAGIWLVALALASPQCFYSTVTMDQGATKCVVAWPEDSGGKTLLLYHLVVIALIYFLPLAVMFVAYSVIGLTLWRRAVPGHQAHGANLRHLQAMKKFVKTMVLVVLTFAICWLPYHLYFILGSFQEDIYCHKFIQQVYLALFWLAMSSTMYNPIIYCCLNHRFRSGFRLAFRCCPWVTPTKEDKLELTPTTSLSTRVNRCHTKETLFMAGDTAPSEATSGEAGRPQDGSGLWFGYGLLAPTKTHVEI

[11] = biological target: 5-hydroxytryptamine receptor 6 (Homo sapiens, UniProt P50406)
[12] = biological target: Rod cGMP-specific 3',5'-cyclic phosphodiesterase subunit alpha (Homo sapiens, UniProt P16499); format: functional
[13] = biological target: Beta-1 adrenergic receptor (Homo sapiens, UniProt P08588); format: functional, cell-based
[14] = biological target: T4, Type-2 angiotensin II receptor (Homo sapiens, UniProt P50052); format: functional
T4 sequence (P50052 whole entry): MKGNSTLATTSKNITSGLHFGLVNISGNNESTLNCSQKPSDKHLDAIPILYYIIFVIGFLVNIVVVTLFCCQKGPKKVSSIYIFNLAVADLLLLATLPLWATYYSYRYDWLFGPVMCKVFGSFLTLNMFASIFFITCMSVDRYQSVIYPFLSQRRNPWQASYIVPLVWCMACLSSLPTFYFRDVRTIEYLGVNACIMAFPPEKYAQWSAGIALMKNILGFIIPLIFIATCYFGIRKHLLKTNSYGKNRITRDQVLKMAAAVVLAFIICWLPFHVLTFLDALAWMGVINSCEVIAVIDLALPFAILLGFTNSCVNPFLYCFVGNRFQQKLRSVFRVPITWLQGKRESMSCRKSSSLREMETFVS
Note: assay procedure not described here.

Chain of Rod cGMP-specific 3',5'-cyclic phosphodiesterase subunit alpha (P16499 whole entry): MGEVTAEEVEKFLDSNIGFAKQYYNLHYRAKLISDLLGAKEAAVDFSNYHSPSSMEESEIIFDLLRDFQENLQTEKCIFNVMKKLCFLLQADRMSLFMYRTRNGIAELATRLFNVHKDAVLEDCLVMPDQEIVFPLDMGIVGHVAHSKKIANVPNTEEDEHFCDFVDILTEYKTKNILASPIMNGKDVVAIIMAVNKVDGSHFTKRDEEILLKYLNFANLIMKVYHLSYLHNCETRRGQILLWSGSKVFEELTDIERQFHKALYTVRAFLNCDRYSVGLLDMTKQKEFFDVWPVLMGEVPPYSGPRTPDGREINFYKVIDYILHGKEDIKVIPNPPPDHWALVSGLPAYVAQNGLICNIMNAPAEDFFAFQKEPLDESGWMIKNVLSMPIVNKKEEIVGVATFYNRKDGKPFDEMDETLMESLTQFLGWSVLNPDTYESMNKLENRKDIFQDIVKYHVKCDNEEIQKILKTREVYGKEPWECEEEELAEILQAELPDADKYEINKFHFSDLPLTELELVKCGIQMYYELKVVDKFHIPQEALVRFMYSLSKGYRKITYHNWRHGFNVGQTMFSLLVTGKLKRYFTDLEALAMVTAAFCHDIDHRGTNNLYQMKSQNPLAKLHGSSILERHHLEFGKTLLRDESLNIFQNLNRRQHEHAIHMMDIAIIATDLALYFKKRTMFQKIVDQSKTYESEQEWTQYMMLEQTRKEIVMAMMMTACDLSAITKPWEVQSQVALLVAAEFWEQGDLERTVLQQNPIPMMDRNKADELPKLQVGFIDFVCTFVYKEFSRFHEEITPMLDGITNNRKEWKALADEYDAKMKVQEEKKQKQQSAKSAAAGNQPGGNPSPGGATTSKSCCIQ
Chain of Hydroxycarboxylic acid receptor 2 (Q8TDS4 whole entry): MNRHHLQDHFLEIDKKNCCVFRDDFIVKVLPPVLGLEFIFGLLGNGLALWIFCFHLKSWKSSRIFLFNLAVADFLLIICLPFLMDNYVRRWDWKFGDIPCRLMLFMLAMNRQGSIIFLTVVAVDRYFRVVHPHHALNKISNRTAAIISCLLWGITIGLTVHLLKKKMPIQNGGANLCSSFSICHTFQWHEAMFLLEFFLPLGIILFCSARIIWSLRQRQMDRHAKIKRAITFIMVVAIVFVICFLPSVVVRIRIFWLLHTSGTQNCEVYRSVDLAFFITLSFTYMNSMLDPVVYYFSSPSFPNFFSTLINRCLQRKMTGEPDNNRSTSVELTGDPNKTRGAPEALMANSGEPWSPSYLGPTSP
Chain of 5-hydroxytryptamine receptor 6 (P50406 whole entry): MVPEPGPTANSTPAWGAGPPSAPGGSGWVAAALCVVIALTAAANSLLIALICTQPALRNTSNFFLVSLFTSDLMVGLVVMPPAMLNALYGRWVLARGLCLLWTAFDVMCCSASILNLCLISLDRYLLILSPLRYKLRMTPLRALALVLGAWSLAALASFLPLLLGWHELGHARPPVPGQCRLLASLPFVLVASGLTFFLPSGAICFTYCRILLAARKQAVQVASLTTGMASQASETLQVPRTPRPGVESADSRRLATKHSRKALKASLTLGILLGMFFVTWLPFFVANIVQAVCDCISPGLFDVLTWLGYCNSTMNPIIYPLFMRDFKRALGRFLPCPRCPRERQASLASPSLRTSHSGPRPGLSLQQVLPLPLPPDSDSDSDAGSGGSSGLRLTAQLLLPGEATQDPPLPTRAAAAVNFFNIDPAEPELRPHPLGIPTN
Chain of Gamma-aminobutyric acid type B receptor subunit 1 (Q9UBS5 whole entry): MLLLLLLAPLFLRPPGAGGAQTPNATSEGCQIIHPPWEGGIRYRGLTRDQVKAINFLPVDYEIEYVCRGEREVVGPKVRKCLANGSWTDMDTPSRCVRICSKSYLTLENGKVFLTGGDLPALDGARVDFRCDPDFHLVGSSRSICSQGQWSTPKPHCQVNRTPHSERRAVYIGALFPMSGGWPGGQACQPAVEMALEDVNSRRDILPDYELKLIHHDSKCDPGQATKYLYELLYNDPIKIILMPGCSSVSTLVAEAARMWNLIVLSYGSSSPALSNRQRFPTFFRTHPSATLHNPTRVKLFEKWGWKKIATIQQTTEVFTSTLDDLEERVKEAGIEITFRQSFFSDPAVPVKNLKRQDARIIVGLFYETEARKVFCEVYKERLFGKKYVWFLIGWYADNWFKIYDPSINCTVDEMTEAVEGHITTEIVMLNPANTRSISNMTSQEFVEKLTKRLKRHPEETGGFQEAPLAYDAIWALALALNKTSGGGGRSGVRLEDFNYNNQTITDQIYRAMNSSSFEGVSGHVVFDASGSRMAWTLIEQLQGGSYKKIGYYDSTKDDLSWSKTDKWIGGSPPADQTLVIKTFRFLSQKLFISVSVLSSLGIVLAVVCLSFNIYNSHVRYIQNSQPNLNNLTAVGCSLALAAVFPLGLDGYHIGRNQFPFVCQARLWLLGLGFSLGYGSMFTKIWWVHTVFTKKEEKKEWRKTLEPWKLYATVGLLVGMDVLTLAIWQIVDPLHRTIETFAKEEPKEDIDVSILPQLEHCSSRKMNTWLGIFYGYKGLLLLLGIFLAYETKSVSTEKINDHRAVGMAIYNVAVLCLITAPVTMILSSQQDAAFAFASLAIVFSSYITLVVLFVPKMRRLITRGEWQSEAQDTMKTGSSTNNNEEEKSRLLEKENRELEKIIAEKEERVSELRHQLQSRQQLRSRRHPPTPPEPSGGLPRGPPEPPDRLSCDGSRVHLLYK
Chain of Cannabinoid receptor 1 (P21554 whole entry): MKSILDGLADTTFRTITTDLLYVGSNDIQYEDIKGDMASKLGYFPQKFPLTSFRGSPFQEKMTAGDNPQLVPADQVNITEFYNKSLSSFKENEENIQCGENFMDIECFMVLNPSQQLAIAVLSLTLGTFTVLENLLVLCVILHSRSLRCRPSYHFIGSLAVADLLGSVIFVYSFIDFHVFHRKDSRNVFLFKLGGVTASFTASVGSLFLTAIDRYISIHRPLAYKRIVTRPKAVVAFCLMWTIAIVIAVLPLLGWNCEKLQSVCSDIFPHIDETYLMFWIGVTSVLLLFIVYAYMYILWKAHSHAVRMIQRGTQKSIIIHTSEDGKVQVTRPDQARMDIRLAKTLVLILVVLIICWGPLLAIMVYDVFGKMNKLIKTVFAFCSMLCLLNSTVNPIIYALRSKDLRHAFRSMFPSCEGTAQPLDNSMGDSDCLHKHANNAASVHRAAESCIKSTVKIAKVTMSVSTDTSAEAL
Chain of 5-hydroxytryptamine receptor 5A (P47898 whole entry): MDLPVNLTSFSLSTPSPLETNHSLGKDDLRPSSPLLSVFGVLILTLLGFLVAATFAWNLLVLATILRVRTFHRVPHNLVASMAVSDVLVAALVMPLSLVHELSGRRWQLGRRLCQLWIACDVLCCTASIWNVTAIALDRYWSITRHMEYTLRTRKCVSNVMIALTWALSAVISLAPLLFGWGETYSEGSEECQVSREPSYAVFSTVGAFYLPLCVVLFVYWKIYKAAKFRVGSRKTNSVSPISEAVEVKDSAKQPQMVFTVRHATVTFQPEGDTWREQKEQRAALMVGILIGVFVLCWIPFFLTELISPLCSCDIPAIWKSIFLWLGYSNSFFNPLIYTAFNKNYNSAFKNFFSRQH
Chain of Beta-1 adrenergic receptor (P08588 whole entry): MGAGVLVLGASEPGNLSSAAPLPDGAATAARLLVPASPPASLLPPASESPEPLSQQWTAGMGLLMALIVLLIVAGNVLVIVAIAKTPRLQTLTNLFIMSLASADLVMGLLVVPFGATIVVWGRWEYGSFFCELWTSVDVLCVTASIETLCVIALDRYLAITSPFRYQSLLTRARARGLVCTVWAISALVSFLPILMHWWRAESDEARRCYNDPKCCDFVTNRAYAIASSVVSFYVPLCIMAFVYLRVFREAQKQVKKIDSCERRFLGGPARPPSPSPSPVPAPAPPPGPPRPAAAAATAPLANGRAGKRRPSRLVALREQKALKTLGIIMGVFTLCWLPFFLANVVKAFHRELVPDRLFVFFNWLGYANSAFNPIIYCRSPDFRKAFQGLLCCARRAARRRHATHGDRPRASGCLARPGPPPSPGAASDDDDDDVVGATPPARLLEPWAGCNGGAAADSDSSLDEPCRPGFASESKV
Chain of Synaptic vesicular amine transporter (Q01827 whole entry): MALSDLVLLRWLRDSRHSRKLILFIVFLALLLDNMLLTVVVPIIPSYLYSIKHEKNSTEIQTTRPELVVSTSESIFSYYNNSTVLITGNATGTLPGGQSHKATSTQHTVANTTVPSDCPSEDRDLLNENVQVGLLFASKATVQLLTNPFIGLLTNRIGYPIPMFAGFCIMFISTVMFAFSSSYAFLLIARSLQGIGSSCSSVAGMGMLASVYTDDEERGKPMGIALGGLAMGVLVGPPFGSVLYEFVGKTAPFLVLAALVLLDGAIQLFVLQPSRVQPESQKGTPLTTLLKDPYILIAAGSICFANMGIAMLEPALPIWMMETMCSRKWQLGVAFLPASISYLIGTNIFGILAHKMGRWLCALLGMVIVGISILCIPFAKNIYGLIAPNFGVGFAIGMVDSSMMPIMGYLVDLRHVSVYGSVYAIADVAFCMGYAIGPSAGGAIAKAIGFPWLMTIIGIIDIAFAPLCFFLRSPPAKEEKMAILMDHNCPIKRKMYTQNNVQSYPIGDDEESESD

In the case of `O=C(O)c1ccc2nc(-c3cc(Cl)cc(Cl)c3)oc2c1`, the AC50 [1] is reported as over 30 µM.

`O=C(O[C@H]1C[N+]2(CCCOc3ccccc3)CCC1CC2)C(O)(c1cccs1)c1cccs1` [ACLIDINIUM BROMIDE] gave an AC50 [2] of over 10 µM.

`Cc1nnc2n1-c1ccc(Cl)cc1C(c1ccccc1)=NC2` [ALPRAZOLAM] gave an AC50 [2] of over 10 µM.

With `COc1ccc(-n2nc(C(N)=O)c3c2C(=O)N(c2ccc(N4CCCCC4=O)cc2)CC3)cc1` [APIXABAN] the AC50 [3] was over 30 µM, the AC50 [4] was over 30 µM and the AC50 [5] was over 30 µM.

`CC(NC(C)(C)C)C(=O)c1cccc(Cl)c1` (stereo unspecified) [BUPROPION] showed an AC50 [6] of over 10 µM, an AC50 [7] of over 10 µM and an AC50 [8] of over 10 µM. The AC50 [9] was over 30 µM, the AC50 [10] was over 10 µM and the AC50 [11] was over 10 µM.

For `O=C1CN=C(c2ccccc2Cl)c2cc([N+](=O)[O-])ccc2N1` [CLONAZEPAM], the AC50 [2] was over 10 µM.

Work on `CCCCCCOC(=O)NC(=N)c1ccc(NCc2nc3cc(C(=O)N(CCC(=O)OCC)c4ccccn4)ccc3n2C)cc1` [DABIGATRAN ETEXILATE] yielded an AC50 [3] of over 30 µM, an AC50 [4] of over 30 µM and an AC50 [5] of over 30 µM.

Work on `Cc1ccc(-c2ncc(Cl)cc2-c2ccc(S(C)(=O)=O)cc2)cn1` [ETORICOXIB] yielded an AC50 [6] of over 10 µM, an AC50 [7] of over 10 µM and an AC50 [8] of over 10 µM. The AC50 [10] was over 10 µM, the AC50 [11] was over 10 µM and the AC50 [12] was over 10 µM.

Compound `CC(=O)OCC(=O)[C@@]1(O)CC[C@H]2[C@@H]3CCC4=CC(=O)CC[C@]4(C)[C@@]3(F)[C@@H](O)C[C@@]21C` [FLUDROCORTISONE ACETATE] has an AC50 [13] of over 30 µM.

With `Cc1ccc(S(=O)(=O)NC(=O)N[C@H]2[C@H]3CC[C@@](C)([C@H]2O)C3(C)C)cc1` [GLIBORNURIDE] the AC50 [13] was over 30 µM.

`CN1C2CCCC1CC(NC(=O)c1nn(C)c3ccccc13)C2` (stereo unspecified) [GRANISETRON] was tested, and the AC50 [6] was over 10 µM, the AC50 [8] was over 10 µM and the AC50 [10] was over 10 µM. The AC50 [11] was over 10 µM and the AC50 [12] was over 10 µM.

With `COc1ccc2c3c1O[C@H]1C(=O)CC[C@H]4[C@@H](C2)N(C)CC[C@]314` [HYDROCODONE] the AC50 [2] was over 10 µM.

`CC1Cc2ccccc2N1NC(=O)c1ccc(Cl)c(S(N)(=O)=O)c1` (stereo unspecified) [INDAPAMIDE] showed an AC50 [14] of over 100 µM.

`CC(=O)N1CCN(c2ccc(OCC3COC(Cn4ccnc4)(c4ccc(Cl)cc4Cl)O3)cc2)CC1` (stereo unspecified) [KETOCONAZOLE] gave an AC50 [3] of over 30 µM and an AC50 [9] of 0.57 µM.

With `CCN(CC)CC(=O)Nc1c(C)cccc1C` [LIDOCAINE] the AC50 [10] was over 10 µM and the AC50 [12] was over 10 µM.

In the case of `COc1nc(C)nc(Cl)c1N=C1NCCN1` [MOXONIDINE], the AC50 [13] is reported as over 30 µM.

`CC(C)(C)NCC(O)COc1cccc2c1CC(O)C(O)C2` (stereo unspecified) [NADOLOL] was tested, and the AC50 [14] was over 100 µM.

Work on `COC(=O)c1ccc2c(c1)NC(=O)/C2=C(\Nc1ccc(N(C)C(=O)CN2CCN(C)CC2)cc1)c1ccccc1` [NINTEDANIB] yielded an AC50 [5] of over 30 µM.

`CN1CCCN=C1/C=C/c1cccc(O)c1` [OXANTEL] gave an AC50 [13] of over 30 µM.

Compound `CC(C)(N)Cc1ccccc1` [PHENTERMINE] has an AC50 [7] of over 10 µM.

For `CCCCCCCC(=O)CC[C@@H]1[C@@H](C/C=C\CCCC(=O)O)[C@@H](O)C[C@H]1O` [UNOPROSTONE], the AC50 [1] was over 50 µM.
